# DBAASP
# “And” between values parts separate entries of the source, which are not always exact repeats. Equal entries are not always repeated.
# How the values were obtained:
# Assay in all cases: ≥ marks a high value that may be exact or a test limit, other limits are often not marked, values filed in µg/mL are converted to µM
# [1] = tested on: Bacillus subtilis KCTC 3068
# [2] = tested on: Escherichia coli ATCC 25922
# [3] = tested on: Salmonella typhimurium CMCC 50013
# [4] = tested on: Staphylococcus aureus ATCC 29213
# [5] = tested on: Candida albicans
# [6] = tested on: Candida krusei CGMCC 2.1857
# [7] = tested on: Candida parapsilosis CGMCC 2.3989
# [8] = tested on: Candida tropicalis CGMCC 2.1975
# [9] = tested on: Escherichia coli 1005
# [10] = tested on: Escherichia coli
# [11] = tested on: Klebsiella pneumoniae
# [12] = tested on: Pseudomonas aeruginosa PAO1
# [13] = tested on: Pseudomonas aeruginosa
# [14] = tested on: Salmonella enterica subsp. enterica serovar Pullorum ATCC 7913
# [15] = tested on: Salmonella enterica subsp. enterica serovar Typhimurium ATCC 14028
# [16] = tested on: Staphylococcus aureus ATCC 25923
# [17] = tested on: Staphylococcus aureus ATCC 43300
# [18] = tested on: Staphylococcus aureus
# [19] = tested on: Staphylococcus epidermidis ATCC 12228
# [20] = tested on: Streptococcus pneumoniae
# [21] = tested on: Pseudomonas aeruginosa ATCC 27853
# [22] = tested on: Staphylococcus pseudintermedius
# [23] = tested on: Acinetobacter baumannii
# [24] = tested on: Escherichia coli K88
# [25] = tested on: Escherichia coli K99
# [26] = tested on: Escherichia coli UB1005
# [27] = tested on: Pseudomonas aeruginosa CICC 21625
# [28] = tested on: Pseudomonas aeruginosa CICC 21630
# [29] = tested on: Salmonella enterica subsp. enterica serovar Pullorum C79-13
# [30] = tested on: Salmonella enterica subsp. enterica serovar Typhimurium C77-31
# [31] = tested on: Aspergillus flavus
# [32] = tested on: Aspergillus fumigatus NCPF 2109
# [33] = tested on: Aspergillus niger A296
# [34] = tested on: Candida albicans MDM8
# [35] = tested on: Candida parapsilosis IOC 4564
# [36] = tested on: Candida tropicalis IOC 4560
# [37] = tested on: Cryptococcus neoformans var. grubii H99
# [38] = tested on: Saccharomyces cerevisiae ATCC 2601
compound,measurement,setting,value
CC[C@H](C)[C@H](NC(=O)[C@@H](N)CO)C(=O)N[C@@H](CO)C(=O)N[C@@H](CC(C)C)C(=O)N[C@@H](CC(C)C)C(=O)O [SISLL],MIC,[1],≥ 133 µM
same,MIC,[2],172 µM
same,MIC,[3],≥ 186 µM
same,MIC,[4],158 µM
NC(=O)[C@H](CCCN=C(N)N)NC(=O)[C@H](Cc1c[nH]c2ccccc12)NC(=O)[C@H](CCCN=C(N)N)NC(=O)[C@H](Cc1c[nH]c2ccccc12)NC(=O)[C@H](Cc1c[nH]c2ccccc12)NC(=O)[C@H](Cc1c[nH]c2ccccc12)NC(=O)[C@H](CCCN=C(N)N)NC(=O)[C@H](Cc1c[nH]c2ccccc12)NC(=O)[C@@H](N)CCCN=C(N)N [RWRWWWRWR],MIC,[5],2.83 µM
same,MIC,[6],4 µM
same,MIC,[7],16 µM
same,MIC,[8],2 µM
same,MIC,[9],2 µM
same,MIC,[2],4 µM and > 2 µM
same,MIC,[10],8 µM
same,MIC,[11],32 µM
same,MIC,[12],16 µM
same,MIC,[13],16 µM
same,MIC,[14],2 µM
same,MIC,[15],4 µM
same,MIC,[16],4 µM
same,MIC,[4],4 µM
same,MIC,[17],2 µM
same,MIC,[18],8 µM
same,MIC,[19],4 µM
same,MIC,[20],≥ 32 µM
CC[C@H](C)[C@H](NC(=O)[C@@H]1CCCN1C(C)=O)C(=O)N[C@@H](Cc1cnc[nH]1)C(=O)N[C@@H](CCCN=C(N)N)C(=O)N[C@@H](CCCN=C(N)N)C(=O)N[C@H](C(=O)N1CCC[C@H]1C(=O)N1CCC[C@H]1C(=O)N[C@@H](CCCN=C(N)N)C(=O)N[C@@H](Cc1c[nH]c2ccccc12)C(=O)N1CCC[C@H]1C(=O)N[C@@H](CCCN=C(N)N)C(=O)N[C@@H](CC(C)C)C(=O)N[C@@H](CCCCN)C(=O)N[C@@H](CCCN=C(N)N)C(=O)N[C@@H](CCCN=C(N)N)C(=O)N[C@@H](Cc1c[nH]c2ccccc12)C(N)=O)[C@@H](C)CC [PIHRRIPPRWPRLKRRW],MIC,[21],27.6 µM
same,MIC,[13],55.2 µM
same,MIC,[4],27.6 µM
same,MIC,[22],27.6 µM
CC(C)[C@H](N)C(=O)N[C@@H](CCCCN)C(=O)N1CCC[C@H]1C(=O)N[C@H](C(=O)N[C@H](C(=O)N[C@@H](CCCCN)C(=O)N1CCC[C@H]1C(=O)N[C@H](C(=O)N[C@H](C(=O)N[C@@H](CCCCN)C(=O)N1CCC[C@H]1C(=O)N[C@H](C(=O)N[C@H](C(=O)N[C@@H](CCCCN)C(=O)N1CCC[C@H]1C(=O)N[C@H](C(=O)N[C@H](C(=O)N[C@@H](CCCCN)C(=O)N1CCC[C@H]1C(=O)N[C@H](C(=O)N[C@H](C(=O)N[C@@H](CCCCN)C(=O)N1CCC[C@H]1C(=O)N[C@H](C(=O)N[C@H](C(=O)N[C@@H](CCCCN)C(=O)N1CCC[C@H]1C(=O)N[C@H](C(N)=O)C(C)C)C(C)C)C(C)C)C(C)C)C(C)C)C(C)C)C(C)C)C(C)C)C(C)C)C(C)C)C(C)C)C(C)C)C(C)C [VKPVVKPVVKPVVKPVVKPVVKPVVKPV],MIC,[23],≥ 64 µM
same,MIC,[2],> 64 µM
same,MIC,[24],≥ 64 µM
same,MIC,[25],≥ 64 µM
same,MIC,[26],≥ 64 µM
same,MIC,[10],> 64 µM
same,MIC,[11],> 64 µM
same,MIC,[21],> 64 µM
same,MIC,[27],≥ 64 µM
same,MIC,[28],≥ 64 µM
same,MIC,[12],> 64 µM
same,MIC,[13],> 64 µM
same,MIC,[29],≥ 64 µM
same,MIC,[15],> 64 µM
same,MIC,[30],≥ 64 µM
CC(C)C[C@H](NC(=O)[C@H](CC(C)C)NC(=O)[C@H](CCCCN)NC(=O)[C@@H](N)Cc1ccccc1)C(=O)N[C@@H](CO)C(=O)N[C@@H](Cc1cnc[nH]1)C(=O)N[C@@H](CO)C(=O)N[C@@H](CC(C)C)C(=O)N[C@@H](CC(C)C)C(=O)N[C@H](C(=O)N[C@H](C(=O)N[C@@H](CC(C)C)C(=O)N[C@@H](C)C(=O)N[C@@H](CO)C(=O)N[C@@H](Cc1cnc[nH]1)C(=O)N[C@@H](CC(C)C)C(=O)N1CCC[C@H]1C(=O)O)[C@@H](C)O)C(C)C [FKLLSHSLLVTLASHLP],MIC,[31],≥ 50 µM
same,MIC,[32],6.3 µM
same,MIC,[33],12.5 µM
same,MIC,[34],2.1 µM
same,MIC,[35],12.5 µM
same,MIC,[36],2.1 µM
same,MIC,[37],1.6 µM
same,MIC,[38],3.1 µM
